{"source": "patent US8710067B2", "about": "“Method for the treatment, alleviation of symptoms of, relieving, improving and preventing a cognitive disease, disorder or condition” (Alcobra Ltd., priority 2009, dated 2014)", "key": {"ADHD/ADD adult patients [1]": {"system": "ADHD/ADD adult patients", "experiment": "TOVA (Test of Variables of Attention) in ADHD/ADD adult patients (Example 2)", "format": "in vivo, human", "conditions": "n = 12; Bonferroni adjustment; NS, p 0.258", "description": "(§1) 38 ADHD/ADD adult patients (age 18-45) of ADHD unit of the Geha Mental Health Center (Israel) were tested.\n(§2) A total of four tablets were administered to each patient: • Two tablets of immediate release (IR) formulation (defined in Table 4) and • Two tablets of slow release (SR) formulation (defined in Table 5).\n(§3) Tests at inclusion included selection of patients, and included clinical diagnosis by DSM IV, psychiatric examination, WURS & ASRS questionnaires, TOVA (Test of Variables of Attention) score, Wechsler (Wechsler Adult Intelligence Scale) subtests, BDI (Beck Depression Inventory) and STAI (State-Trait Anxiety Inventory) questionnaire.\nThe TOVA is a computerized test developed to assess attention and impulsivity in normal and clinical populations. Main outcome measures for the TOVA are the Omission Standard Score (SS; inattention measure) the Commission Standard Score (SS; measure of impulse control), the Response Time (RT) SS, the Variability in RT SS, and overall ADHD SS (a composite score of the previous submeasures).\n(§4) The Primary outcome measure was the ADHD Score, TOVA Omission, TOVA Commission, TOVA RT and TOVA Variability analysed as Standard Score in % compared to the patient's prior performance of the TOVA test at baseline. Secondary outcome measures were Subtests from Weschler: Digit span, Symbol Search, Digit symbol."}, "humans": {"system": "humans", "conditions": "long term data; cited from earlier work"}, "ADHD/ADD adult patients [2]": {"system": "ADHD/ADD adult patients", "experiment": "Wechsler subtests in ADHD/ADD adult patients (Example 2)", "format": "in vivo, human", "conditions": "single dose 1400 mg, 90 minutes after dosing", "description": "as §1, §2, §3, §4"}, "[3]": {"system": "abstinent chronic alcoholic", "conditions": "abstinent chronic alcoholics, after 1-2 months of abstinence; control group given vitamin B6; cited from earlier work"}, "[4]": {"system": "frontoparietal cortex of guinea pigs", "conditions": "cited from earlier work"}, "[5]": {"conditions": "cited from earlier work"}, "[6]": {"system": "animals with alcohol intake", "conditions": "animal studies, cited from earlier work"}, "[7]": {"experiment": "Pharmacokinetics after single administration to fasted healthy subjects (Example 1)", "format": "in vivo, human", "description": "The above mentioned formulations were given to fasted healthy patients. Blood samples were collected following a predetermined time schedule in order to characterize formulation adsorption and elimination."}}}
{"compound": "Cc1ncc(CO)c(CO)c1O.O=C1CC[C@@H](C(=O)O)N1", "note": "[Metadoxine, pyridoxine L-2-pyrrolidone-5-carboxylate]", "values": [{"measurement": "ADHD Score, Mean Difference, comparison with (3) Metadoxine 1400 mg, other group not given", "setting": "ADHD/ADD adult patients [1]", "result": "+3.687 NS"}, {"measurement": "safety for use by humans", "setting": "humans", "result": "safe for use by humans"}, {"measurement": "cognitive functions in the ADHD adult population (Wechsler subtests overall)", "setting": "ADHD/ADD adult patients [2]", "result": "confirmed the ability of Metadoxine to improve cognitive functions"}, {"measurement": "recovery of short-term memory", "setting": "[3]", "result": "helps recovery of short-term memory"}, {"measurement": "level of GABA and acetylcholine", "setting": "[4]", "result": "increased"}, {"measurement": "mean half life in human serum", "setting": "[5]; Lu Yuan et al.", "result": "about 0.8 hour"}, {"measurement": "half life in human serum", "setting": "[5]; oral and intravenous administration, no appreciable differences", "result": "40 to 60", "unit": "min"}, {"measurement": "bioavailability", "setting": "[5]; oral", "result": "60-80%"}, {"measurement": "increased production of fatty acid esters in the liver", "setting": "[6]; during chronic alcohol intake", "result": "inhibited"}, {"measurement": "oxidative stress and glutathione depletion in hepatic tissues", "setting": "[6]", "result": "reduced oxidative stress and prevented glutathione depletion"}, {"measurement": "time to maximal concentration", "setting": "[7]; FIG. 1, immediate/slow release formulations, fasted healthy subjects", "result": "about 0.5 hour"}, {"measurement": "dose-linearity for Cmax and AUC", "setting": "[7]; single administration, dose range 700 to 2100 mg, healthy Caucasian subjects", "result": "dose-linearity was demonstrated"}]}
